Source: US10584115B2, “Substituted pyridine and pyrazine BMI-1 inhibitors” (PTC Therapeutics, Inc., priority 2013, dated 2020)
Like-named read-outs stand apart in the source and are kept apart here.

Assays:
[1] = test system: Bmi-1 protein; test: Sandwich ELISA Assay (Bmi-1 protein level in HT-1080 cells after compound treatment); assay type: cell-based
Outline: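 Sandwich ELISA quantified Bmi-1 protein against recombinant standard (125–8000 pg/mL), with lysates captured overnight at 4 °C and signal by HRP/TMB at 450 nm (570 nm reference). Lysates came from HT-1080 cells incubated 40–48 h with test compounds in 0.5% DMSO.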

[2] = Table 1, Bmi-1 sandwich ELISA, read-out: ELISA EC50 value for Bmi-1 protein
[3] = read-out: ELISA EC50 value for Bmi-1 protein, Table 1, Bmi-1 sandwich ELISA

| EC50 [1, 2] | melting point | SMILES | EC50 [1, 3] |
| --- | --- | --- | --- |
| 1 to 10 nM | 173 to 175 °C | Fc1ccc2nc(C3CC3)c(-c3cncc(Nc4ccc(OC(F)F)c(F)c4)n3)n2c1 [compound 338, 6-(2-cyclopropyl-6-fluoroimidazo[1,2-a]pyridin-3-yl)-N-[4-(difluoromethoxy)-3-fluorophenyl]pyrazin-2-amine] |  |
| 10 to 100 nM | 245 to 247 °C | N#Cc1cc(Nc2ccc(C(F)(F)F)cc2)nc(-c2c(C3CC3)nc3ccc(F)cn23)c1 [compound 346, 2-(2-cyclopropyl-6-fluoroimidazo[1,2-a]pyridin-3-yl)-6-{[4-(trifluoromethyl)phenyl]amino}pyridine-4-carbonitrile] |  |
| 10 to 100 nM | 256 to 258 °C | N#Cc1cc(Nc2ccc(C(F)(F)F)c(F)c2)nc(-c2c(C3CC3)nc3ccc(F)cn23)c1 [compound 347, 2-(2-cyclopropyl-6-fluoroimidazo[1,2-a]pyridin-3-yl)-6-{[3-fluoro-4-(trifluoromethyl)phenyl]amino}pyridine-4-carbonitrile] |  |
| 10 to 100 nM | 185 to 186 °C | N#Cc1cc(Nc2ccc(OC(F)F)c(F)c2)nc(-c2c(C3CC3)nc3ccc(F)cn23)c1 [compound 349, 2-(2-cyclopropyl-6-fluoroimidazo[1,2-a]pyridin-3-yl)-6-{[4-(difluoromethoxy)-3-fluorophenyl]amino}pyridine-4-carbonitrile] |  |
| 1 to 10 nM | 263 to 265 °C | Fc1ccc2nc(C3CC3)n(-c3cncc(Nc4ccc(C(F)(F)F)cc4)n3)c2c1 [compound 362, 6-(2-cyclopropyl-6-fluoro-1H-benzimidazol-1-yl)-N-[4-(trifluoromethyl)phenyl]pyrazin-2-amine] |  |
| 100 to 3000 nM | 169 to 170 °C | Nc1cc(Nc2ccc(OC(F)F)c(F)c2)nc(-c2c(C3CC3)nc3ccc(F)cn23)c1 [compound 366, 6-(2-cyclopropyl-6-fluoroimidazo[1,2-a]pyridin-3-yl)-N^2-[4-(difluoromethoxy)-3-fluorophenyl]pyridine-2,4-diamine] |  |
| 100 to 3000 nM | 158 to 160 °C | NS(=O)(=O)Nc1cc(Nc2ccc(C(F)(F)F)cc2)nc(-c2c(C3CC3)nc3ccc(F)cn23)c1 [compound 368, N-[2-(2-cyclopropyl-6-fluoroimidazo[1,2-a]pyridin-3-yl)-6-{[4-(trifluoromethyl)phenyl]amino}pyridin-4-yl]sulfuric diamide] |  |
| 1 to 10 nM | 129 to 130 °C | CCn1nc(C)c(-c2cncc(Nc3ccc(OC(F)F)c(F)c3)n2)c1C [compound 382, N-[4-(difluoromethoxy)-3-fluorophenyl]-6-(1-ethyl-3,5-dimethyl-1H-pyrazol-4-yl)pyrazin-2-amine] |  |
| 100 to 3000 nM | 50 to 51 °C | Cc1nn(Cc2ccccn2)c(C)c1-c1cncc(Nc2ccc(C(F)(F)F)cc2)n1 [compound 400, 6-[3,5-dimethyl-1-(pyridin-2-ylmethyl)-1H-pyrazol-4-yl]-N-[4-(trifluoromethyl)phenyl]pyrazin-2-amine] |  |
| 100 to 3000 nM | 75 to 77 °C | Cc1nn(CC[C@H](O)CO)c(C)c1-c1cncc(Nc2ccc(C(F)(F)F)cc2)n1 [compound 404, (2S)-4-[3,5-dimethyl-4-(6-{[4-(trifluoromethyl)phenyl]amino}pyrazin-2-yl)-1H-pyrazol-1-yl]butane-1,2-diol] |  |
| 10 to 100 nM | 291 to 293 °C | N#Cc1cc(Nc2ccc(C(F)(F)F)cc2)nc(-n2c(C3CC3)nc3ccc(F)cc32)c1 [compound 410, 2-(2-cyclopropyl-6-fluoro-1H-benzimidazol-1-yl)-6-{[4-(trifluoromethyl)phenyl]amino}pyridine-4-carbonitrile] |  |
| 10 to 100 nM | 268 to 270 °C | Cc1nc2ncc(F)cn2c1-c1cc(C#N)cc(Nc2ccc(OC(F)F)c(F)c2)n1 [compound 439, 2-{[4-(difluoromethoxy)-3-fluorophenyl]amino}-6-(6-fluoro-2-methylimidazo[1,2-a]pyrimidin-3-yl)pyridine-4-carbonitrile] |  |
| 1 to 10 nM | 243 to 245 °C | Cc1nc2c(F)cc(F)cn2c1-c1cc(C#N)cc(Nc2ccc(C(F)(F)F)cc2)n1 [compound 441, 2-(6,8-difluoro-2-methylimidazo[1,2-a]pyridin-3-yl)-6-{[4-(trifluoromethyl)phenyl]amino}pyridine-4-carbonitrile] |  |
| 10 to 100 nM | 213 to 216 °C | Cc1nc2c(F)cc(F)cn2c1-c1cc(C#N)cc(Nc2ccc(OC(F)(F)F)cc2)n1 [compound 443, 2-(6,8-difluoro-2-methylimidazo[1,2-a]pyridin-3-yl)-6-{[4-(trifluoromethoxy)phenyl]amino}pyridine-4-carbonitrile] |  |

Further lines, the compound ahead of its results:

| SMILES | EC50 [1, 2] | melting point | EC50 [1, 3] |
| --- | --- | --- | --- |
| Fc1ccc2nc(C3CC3)c(-c3cncc(Nc4ccc(C(F)(F)F)cc4)n3)n2c1 [compound 336, 6-(2-cyclopropyl-6-fluoroimidazo[1,2-a]pyridin-3-yl)-N-[4-(trifluoromethyl)phenyl]pyrazin-2-amine] | 1 to 10 nM | 183 to 185 °C |  |
| Fc1ccc2nc(C3CC3)c(-c3cncc(Nc4ccc(OC(F)F)cc4)n3)n2c1 [compound 337, 6-(2-cyclopropyl-6-fluoroimidazo[1,2-a]pyridin-3-yl)-N-[4-(difluoromethoxy)phenyl]pyrazin-2-amine] | < 1 nM | 183 to 185 °C |  |
| N#Cc1cc(Nc2ccc(OC(F)(F)F)cc2)nc(-c2c(C3CC3)nc3ccc(F)cn23)c1 [compound 350, 2-(2-cyclopropyl-6-fluoroimidazo[1,2-a]pyridin-3-yl)-6-{[4-(trifluoromethoxy)phenyl]amino}pyridine-4-carbonitrile] | 10 to 100 nM | 194 to 195 °C |  |
| Cc1nn(CCn2ncnn2)c(C)c1-c1cncc(Nc2ccc(C(F)(F)F)cc2)n1 [compound 352, 6-{3,5-dimethyl-1-[2-(2H-tetrazol-2-yl)ethyl]-1H-pyrazol-4-yl}-N-[4-(trifluoromethyl)phenyl]pyrazin-2-amine] |  | 138 to 139 °C | 1 to 10 nM |
| Nc1cc(Nc2ccc(C(F)(F)F)cc2)nc(-c2c(C3CC3)nc3ccc(F)cn23)c1 [compound 363, 6-(2-cyclopropyl-6-fluoroimidazo[1,2-a]pyridin-3-yl)-N^2-[4-(trifluoromethyl)phenyl]pyridine-2,4-diamine] | 100 to 3000 nM | 160 to 162 °C |  |
| Nc1cc(Nc2ccc(OC(F)F)cc2)nc(-c2c(C3CC3)nc3ccc(F)cn23)c1 [compound 365, 6-(2-cyclopropyl-6-fluoroimidazo[1,2-a]pyridin-3-yl)-N^2-[4-(difluoromethoxy)phenyl]pyridine-2,4-diamine] | 100 to 3000 nM | 185 to 186 °C |  |
| Nc1cc(Nc2ccc(OC(F)(F)F)cc2)nc(-c2c(C3CC3)nc3ccc(F)cn23)c1 [compound 367, 6-(2-cyclopropyl-6-fluoroimidazo[1,2-a]pyridin-3-yl)-N^2-[4-(trifluoromethoxy)phenyl]pyridine-2,4-diamine] | 10 to 100 nM | 166 to 168 °C |  |
| NC(=O)Nc1cc(Nc2ccc(C(F)(F)F)cc2)nc(-c2c(C3CC3)nc3ccc(F)cn23)c1 [compound 369, 1-[2-(2-cyclopropyl-6-fluoroimidazo[1,2-a]pyridin-3-yl)-6-{[4-(trifluoromethyl)phenyl]amino}pyridin-4-yl]urea] |  | 232 to 235 °C | 100 to 3000 nM |
| Cc1nn(Cc2ccccn2)c(C)c1-c1cncc(Nc2ccc(OC(F)F)cc2)n1 [compound 401, N-[4-(difluoromethoxy)phenyl]-6-[3,5-dimethyl-1-(pyridin-2-ylmethyl)-1H-pyrazol-4-yl]pyrazin-2-amine] | 100 to 3000 nM | 47 to 48 °C |  |
| Cc1nn(Cc2cccnc2)c(C)c1-c1cncc(Nc2ccc(C(F)(F)F)cc2)n1 [compound 402, 6-[3,5-dimethyl-1-(pyridin-3-ylmethyl)-1H-pyrazol-4-yl]-N-[4-(trifluoromethyl)phenyl]pyrazin-2-amine] | 10 to 100 nM | 47 to 48 °C |  |
| Cc1nn(Cc2ccncc2)c(C)c1-c1cncc(Nc2ccc(C(F)(F)F)cc2)n1 [compound 403, 6-[3,5-dimethyl-1-(pyridin-4-ylmethyl)-1H-pyrazol-4-yl]-N-[4-(trifluoromethyl)phenyl]pyrazin-2-amine] | 10 to 100 nM | 66 to 67 °C |  |
| Cc1nc2ncc(F)cn2c1-c1cc(C#N)cc(Nc2ccc(C(F)(F)F)cc2)n1 [compound 437, 2-(6-fluoro-2-methylimidazo[1,2-a]pyrimidin-3-yl)-6-{[4-(trifluoromethyl)phenyl]amino}pyridine-4-carbonitrile] | 1 to 10 nM | 290 to 292 °C |  |
| Cc1nc2c(F)cc(F)cn2c1-c1cc(C#N)cc(Nc2ccc(OC(F)F)cc2)n1 [compound 442, 2-{[4-(difluoromethoxy)phenyl]amino}-6-(6,8-difluoro-2-methylimidazo[1,2-a]pyridin-3-yl)pyridine-4-carbonitrile] | 1 to 10 nM | 236 to 238 °C |  |
| Cc1nc2c(F)cc(F)cn2c1-c1cc(C#N)cc(Nc2ccc(OC(F)F)c(F)c2)n1 [compound 444, 2-{[4-(difluoromethoxy)-3-fluorophenyl]amino}-6-(6,8-difluoro-2-methylimidazo[1,2-a]pyridin-3-yl)pyridine-4-carbonitrile] | 10 to 100 nM | 238 to 241 °C |  |
| Fc1cc(F)c2nc(C3CC3)n(-c3cncc(Nc4ccc(C(F)(F)F)cc4)n3)c2c1 [compound 461, 6-(2-cyclopropyl-4,6-difluoro-1H-benzimidazol-1-yl)-N-[4-(trifluoromethyl)phenyl]pyrazin-2-amine] |  | 247 to 249 °C | 10 to 100 nM |
